Like-named read-outs stand apart in the source and are kept apart here.
Experiments:
[1] = Metabolic stability assay in human liver microsomes (HLM); format: in vitro ADME; conditions: 1 μM
Outline: (§1)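 In Protocol 1, compound was 1 μM final with NADPH at 37 °C, sampled at 0–45 min. In Protocol 2, 1.5 μM compound with 0.75 mg/mL microsomes (pre-NADPH mix) in 0.1 M potassium phosphate, 1 mM EDTA, pH 7.4 was pre-incubated 10 min, then NADPH started the reaction. Both: LC-MS/MS % remaining versus time 0, half-life from single-phase exponential fit.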

[2] = Human plasma stability; format: in vitro ADME; conditions: human, plasma, pH 7.4; for % Remaining @ 2 h: 1 μM
Outline: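 Protocol 1: 1 μM compound in pH 7.4 sodium-heparin human plasma at 37° C, sampled 0–120 min. Protocol 2: 5 μM in plasma at pH 7.4–8.0, 37° C, duplicates, sampled 0–120 min. Both: LC-MS/MS percent remaining versus t0; half-life from single-phase exponential decay.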

[3] = biological target: T1, CYP2C19 (Homo sapiens (Human), UniProt P33261); conditions: microsomes
[4] = biological target: rat brain nicotinic receptor (α7 NAChR) (Rattus norvegicus (Rat), UniProt Q05941); format: binding
[5] = biological target: CYP1A2 (Homo sapiens (Human), UniProt P05177); test: Cytochrome P450 inhibition in human liver microsomes, CYP1A2; conditions: read-out: 1A2 IC50, Protocol 2
[6] = Metabolic stability assay in rat liver microsomes (RLM); format: in vitro ADME; conditions: 1 μM
Outline: as §1

[7] = biological target: CYP2C9 (Homo sapiens (Human), UniProt P11712); test: Cytochrome P450 inhibition in human liver microsomes, CYP2C9; conditions: read-out: 2C9 IC50, Protocol 2
[8] = biological target: T1, CYP2C19; test: Cytochrome P450 inhibition in human liver microsomes, CYP2C19; conditions: read-out: 2C19 IC50, Protocol 2
[9] = biological target: CYP2D6 (Homo sapiens (Human), UniProt P10635); test: Cytochrome P450 inhibition in human liver microsomes, CYP2D6; conditions: read-out: 2D6 IC50, Protocol 2
[10] = biological target: CYP3A4 (Homo sapiens (Human), UniProt P08684); test: Cytochrome P450 inhibition in human liver microsomes, CYP3A4; conditions: read-out: 3A4 IC50 (Midazolam), substrate midazolam, Protocol 2
CYP3A4, sequence (P08684 whole entry): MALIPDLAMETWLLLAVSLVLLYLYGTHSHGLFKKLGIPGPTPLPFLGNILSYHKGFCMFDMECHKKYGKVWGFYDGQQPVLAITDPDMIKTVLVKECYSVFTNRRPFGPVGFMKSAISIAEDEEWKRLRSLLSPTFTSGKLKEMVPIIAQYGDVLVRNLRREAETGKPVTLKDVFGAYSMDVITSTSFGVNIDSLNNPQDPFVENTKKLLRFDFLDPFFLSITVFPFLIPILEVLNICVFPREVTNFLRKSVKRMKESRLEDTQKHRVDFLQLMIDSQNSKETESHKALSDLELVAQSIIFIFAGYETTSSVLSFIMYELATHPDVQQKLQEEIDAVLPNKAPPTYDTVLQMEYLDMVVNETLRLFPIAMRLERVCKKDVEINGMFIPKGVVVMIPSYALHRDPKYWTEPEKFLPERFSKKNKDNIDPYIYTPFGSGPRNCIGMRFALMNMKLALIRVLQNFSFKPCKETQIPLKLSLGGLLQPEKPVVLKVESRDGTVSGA

CYP1A2, sequence (P05177 whole entry): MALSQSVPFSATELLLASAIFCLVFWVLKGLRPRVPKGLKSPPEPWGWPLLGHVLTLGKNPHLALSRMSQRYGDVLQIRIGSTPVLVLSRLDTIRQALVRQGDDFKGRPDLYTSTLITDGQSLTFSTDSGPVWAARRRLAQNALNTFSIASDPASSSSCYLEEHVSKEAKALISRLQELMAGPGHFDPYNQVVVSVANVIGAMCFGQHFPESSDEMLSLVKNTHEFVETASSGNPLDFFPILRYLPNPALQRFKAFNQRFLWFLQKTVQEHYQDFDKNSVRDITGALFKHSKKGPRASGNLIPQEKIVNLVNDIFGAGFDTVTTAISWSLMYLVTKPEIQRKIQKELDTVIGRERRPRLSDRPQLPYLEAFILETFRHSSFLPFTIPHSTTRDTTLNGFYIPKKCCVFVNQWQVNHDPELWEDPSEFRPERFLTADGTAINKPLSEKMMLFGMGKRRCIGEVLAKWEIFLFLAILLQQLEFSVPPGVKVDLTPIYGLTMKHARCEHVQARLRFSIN
T1 sequence (P33261 whole entry): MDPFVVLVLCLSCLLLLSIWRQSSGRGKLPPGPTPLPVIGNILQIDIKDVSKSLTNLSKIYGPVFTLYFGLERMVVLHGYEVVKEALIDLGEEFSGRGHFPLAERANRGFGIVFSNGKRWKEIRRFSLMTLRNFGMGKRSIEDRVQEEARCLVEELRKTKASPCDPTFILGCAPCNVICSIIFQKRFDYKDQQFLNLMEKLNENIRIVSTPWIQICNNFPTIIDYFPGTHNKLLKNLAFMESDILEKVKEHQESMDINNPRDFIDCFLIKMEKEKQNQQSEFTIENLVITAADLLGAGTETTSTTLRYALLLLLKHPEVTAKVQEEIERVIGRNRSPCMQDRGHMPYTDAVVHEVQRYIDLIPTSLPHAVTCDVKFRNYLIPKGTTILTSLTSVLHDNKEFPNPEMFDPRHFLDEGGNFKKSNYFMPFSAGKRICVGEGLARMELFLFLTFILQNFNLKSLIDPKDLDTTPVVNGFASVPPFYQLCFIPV
rat brain nicotinic receptor (α7 NAChR), sequence (Q05941 23-502 limits assumed): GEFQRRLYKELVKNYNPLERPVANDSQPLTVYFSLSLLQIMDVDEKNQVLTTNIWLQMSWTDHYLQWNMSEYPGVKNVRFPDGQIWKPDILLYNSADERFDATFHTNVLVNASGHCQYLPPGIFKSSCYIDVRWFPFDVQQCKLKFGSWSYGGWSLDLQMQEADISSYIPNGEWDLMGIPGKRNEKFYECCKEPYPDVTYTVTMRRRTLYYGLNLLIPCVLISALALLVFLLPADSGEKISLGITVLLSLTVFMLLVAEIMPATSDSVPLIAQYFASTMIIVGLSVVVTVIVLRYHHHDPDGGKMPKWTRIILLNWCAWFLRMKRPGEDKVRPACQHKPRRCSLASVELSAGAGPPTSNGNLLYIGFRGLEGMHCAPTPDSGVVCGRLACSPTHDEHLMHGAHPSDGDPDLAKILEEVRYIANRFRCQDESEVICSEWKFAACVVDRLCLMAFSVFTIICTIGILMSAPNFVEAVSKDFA
CYP2D6, sequence (P10635 whole entry): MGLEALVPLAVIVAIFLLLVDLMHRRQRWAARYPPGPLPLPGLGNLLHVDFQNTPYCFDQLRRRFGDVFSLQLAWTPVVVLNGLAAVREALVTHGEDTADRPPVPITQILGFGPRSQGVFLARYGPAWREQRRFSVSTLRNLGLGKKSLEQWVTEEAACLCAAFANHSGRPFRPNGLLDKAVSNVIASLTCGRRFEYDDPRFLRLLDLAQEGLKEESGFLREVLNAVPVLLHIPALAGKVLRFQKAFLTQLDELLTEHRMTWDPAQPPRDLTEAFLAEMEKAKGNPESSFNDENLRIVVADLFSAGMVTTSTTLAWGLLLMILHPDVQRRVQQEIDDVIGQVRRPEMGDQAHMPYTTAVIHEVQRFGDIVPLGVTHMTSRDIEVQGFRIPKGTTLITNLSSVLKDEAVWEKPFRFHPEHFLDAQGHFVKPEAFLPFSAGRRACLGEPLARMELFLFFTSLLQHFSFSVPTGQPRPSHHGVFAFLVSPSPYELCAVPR
CYP2C9, sequence (P11712 whole entry): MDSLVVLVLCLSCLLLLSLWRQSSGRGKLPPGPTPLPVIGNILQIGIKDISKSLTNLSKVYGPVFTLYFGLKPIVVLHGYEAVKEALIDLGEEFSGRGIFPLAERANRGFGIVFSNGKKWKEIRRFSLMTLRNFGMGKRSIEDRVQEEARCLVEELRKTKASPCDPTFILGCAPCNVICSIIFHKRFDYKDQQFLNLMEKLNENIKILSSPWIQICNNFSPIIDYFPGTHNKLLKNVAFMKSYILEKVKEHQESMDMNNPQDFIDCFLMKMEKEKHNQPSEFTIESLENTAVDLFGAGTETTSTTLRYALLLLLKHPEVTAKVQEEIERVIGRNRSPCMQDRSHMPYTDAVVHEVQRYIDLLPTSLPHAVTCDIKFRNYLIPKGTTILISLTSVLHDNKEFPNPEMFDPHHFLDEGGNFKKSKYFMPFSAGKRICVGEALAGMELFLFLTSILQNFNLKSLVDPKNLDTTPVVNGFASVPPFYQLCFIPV

With O=C(OCC12CCN(CC1)CC2)c1c[nH]c2cccc(F)c12 [Compound 13, quinuclidin-4-ylmethyl 4-fluoro-1H-indole-3-carboxylate] the HLM ([1]; human, microsomes, pH 7.4) was <13.608 mL/min/kg, the half-life at 1 μM [2] was 0.25 h and the IC50 [3] was > 10000 nM. The IC50 [4] was 14.1 nM, the Ki [4] was 12.2 nM and the IC50 [5] was > 10000 nM. For the same molecule, the RLM ([6]; rat, microsomes, pH 7.4) was 94.3866 mL/min/kg.

For O=C(OCC12CCN(CC1)CC2)c1c[nH]c2cc(O)ccc12 [Compound 14, quinuclidin-4-ylmethyl 6-hydroxy-1H-indole-3-carboxylate], the HLM ([1]; human, microsomes, pH 7.4) was <13.608 mL/min/kg, the IC50 [7] was > 10000 nM and the “% Remaining @ 2 h” value [2] was 26%. The half-life at 1 μM [2] was 1.09 h, the IC50 [8] was > 10000 nM and the IC50 [9] was > 10000 nM. For the same molecule, the IC50 [4] was 61.9 nM, the Ki [4] was 53.7 nM and the IC50 [5] was > 10000 nM. It also gave an RLM ([6]; rat, microsomes, pH 7.4) of 25.92 mL/min/kg.

For Cc1cccc2[nH]cc(C(=O)OCC34CCN(CC3)CC4)c12 [Compound 21, quinuclidin-4-ylmethyl 4-methyl-1H-indole-3-carboxylate], the HLM ([1]; human, microsomes, pH 7.4) was <13.608 mL/min/kg, the “% Remaining @ 2 h” value [2] was 83% and the half-life at 1 μM [2] was > 2 h. For the same molecule, the IC50 [3] was > 10000 nM, the IC50 [4] was 58.8 nM and the Ki [4] was 50.9 nM. The IC50 [5] was > 10000 nM and the RLM ([6]; rat, microsomes, pH 7.4) was 379.107 mL/min/kg.

For O=C(OCC12CCN(CC1)CC2)c1c[nH]c2cc(Br)ccc12 [Compound 22, quinuclidin-4-ylmethyl 6-bromo-1H-indole-3-carboxylate], the HLM ([1]; human, microsomes, pH 7.4) was <13.608 mL/min/kg, the “% Remaining @ 2 h” value [2] was 58% and the half-life at 1 μM [2] was > 2 h. For the same molecule, the IC50 [3] was > 10000 nM, the IC50 [4] was 607 nM and the Ki [4] was 532 nM. The IC50 [5] was > 10000 nM and the RLM ([6]; rat, microsomes, pH 7.4) was 49.5027 mL/min/kg.

With O=C(OCC12CCN(CC1)CC2)c1c[nH]c2ccc(Br)cc12 [Compound 23, quinuclidin-4-ylmethyl 5-bromo-1H-indole-3-carboxylate] the HLM ([1]; human, microsomes, pH 7.4) was <13.608 mL/min/kg, the “% Remaining @ 2 h” value [2] was 21% and the half-life at 1 μM [2] was 0.882 h. The IC50 [3] was > 10000 nM, the IC50 [4] was 424 nM and the Ki [4] was 374 nM. For the same molecule, the IC50 [5] was > 10000 nM and the RLM ([6]; rat, microsomes, pH 7.4) was 81.6815 mL/min/kg.

For O=C(OCC12CCN(CC1)CC2)c1c[nH]c2cccc(Br)c12 [Compound 24, quinuclidin-4-ylmethyl 4-bromo-1H-indole-3-carboxylate], the HLM ([1]; human, microsomes, pH 7.4) was <13.608 mL/min/kg, the “% Remaining @ 2 h” value [2] was 89% and the half-life at 1 μM [2] was > 2 h. For the same molecule, the IC50 [3] was > 10000 nM, the IC50 [4] was 58.1 nM and the Ki [4] was 50.4 nM. The IC50 [5] was > 10000 nM and the RLM ([6]; rat, microsomes, pH 7.4) was 175.569 mL/min/kg.

For O=C(OCC12CCN(CC1)CC2)c1c[nH]c2cc(Cl)ccc12 [Compound 26, quinuclidin-4-ylmethyl 6-chloro-1H-indole-3-carboxylate], the HLM ([1]; human, microsomes, pH 7.4) was <13.608 mL/min/kg, the “% Remaining @ 2 h” value [2] was 65% and the half-life at 1 μM [2] was > 2 h. For the same molecule, the IC50 [3] was > 10000 nM, the IC50 [4] was 451 nM and the Ki [4] was 398 nM. For the same molecule, the IC50 [5] was > 10000 nM and the RLM ([6]; rat, microsomes, pH 7.4) was 75.0501 mL/min/kg.

In the case of O=C(OCC12CCN(CC1)CC2)c1c[nH]c2ccc(Cl)cc12 [Compound 27, quinuclidin-4-ylmethyl 5-chloro-1H-indole-3-carboxylate], the HLM ([1]; human, microsomes, pH 7.4) is reported as <13.608 mL/min/kg, the IC50 [3] is reported as > 10000 nM and the IC50 [4] is reported as 282 nM. The Ki [4] was 247 nM, the IC50 [5] was > 10000 nM and the RLM ([6]; rat, microsomes, pH 7.4) was 106.429 mL/min/kg.

In the case of Cl.O=C(OCC12CCN(CC1)CC2)c1c[nH]c2cc(OC(F)(F)F)ccc12 [Compound 29, Quinuclidin-4-ylmethyl 6-(trifluoromethoxy)-1H-indole-3-carboxylate hydrochloride], the IC50 [10] is reported as > 10000 nM, the HLM ([1]; Protocol No. 2, human liver microsomes) is reported as <13.608 mL/min/kg and the IC50 [7] is reported as > 10000 nM. The IC50 [8] was > 10000 nM, the IC50 [9] was > 10000 nM and the IC50 [4] was 3710 nM. For the same molecule, the Ki [4] was 3240 nM, the IC50 [5] was > 10000 nM and the RLM ([6]; Protocol No. 2, rat liver microsomes) was 25.92 mL/min/kg.
